Results: US12133846B2, “Electrophilic androgen receptor (AR) antagonists for AR downregulation and ferroptosis induction in cancer cells” (priority 2019, dated 2024)

Columns and labels:
VCaP cells = test: MTT viability assay, VCaP cells; format: cell-based; details: Homo sapiens, VCaP, 72 h, read-out: IC50, viability of VCaP cells
Excerpt: Biological Characterization. ITC-ARi hybrid drugs effectively reduce the viability of PCa cells. By using an MTT assay, it was first examined if the newly synthesized hybrid drugs affect the viability of CRPC-relevant PCa cells. PCa VCaP cells naturally express abundant wild type FL AR as well as AR splice variants (e.g., AR-V7). These cells were, therefore, used as one of the cell culture models in this work to investigate the drug-caused viability loss and AR downregulation.

[1] = 2-63 releases 12b in aqueous buffer (HPLC); format: physicochemical; details: PBS buffer; 2-63 50 μM, PBS pH 7.4, 5% acetonitrile, 37° C., from HPLC peak area; read-out: half-life of 2-63 (decomposition, release of free ITC 12b) (converted)
Procedure: (§1) NAC conjugate 2-63 gradually releases free ITC 12b under physiological condition. The NAC conjugate of ITC could reversibly form free ITCs in aqueous solution (Zhang, Y., Carcinogenesis 2012, 33, 2-9). To test this possibility on the setting of ITC-ARi, 2-63 (50 μM) was dissolved in PBS at physiological pH (7.4), and its decomposition was monitored at 37° C. using HPLC. […] 2-63, therefore, can be viewed as a more water-soluble prodrug of 12b when it is used in cell culture or administrated in vivo. This NAC conjugation approach avoids acute/instant electrophilic insult and can constrain the concentration of electrophilic ITC within certain levels. Since non-cancerous cells usually have a larger GSH/antioxidant pool to neutralize electrophilic/oxidative attack (Trachootham, et al., Cancer Cell 2006, 10, 241-252), different tolerability to 2-63 could be seen between cancerous and noncancerous cells.
2-63 releases 12b in aqueous buffer. Samples for HPLC analysis were prepared by diluting the stock solution (50 mM in DMSO) of 2-63 in PBS buffer (10 mM, pH 7.4) containing 5% acetonitrile. The sample was immediately analyzed right after dilution. The aliquot of incubated samples (37° C.) was analyzed at indicated time points. A linear plot of the log (peak area) versus incubation time was generated to determine the half-life (T1/2) of decomposition. […]

FL AR and AR-V7 = test: Cycloheximide chase of AR protein stability in VCaP cells; format: cell-based; details: cycloheximide 25 μg/mL, 2-63 10 μM, 2-16 h
Procedure: FL AR is a client protein of Hsp90, and AR-V7 might be chaperoned by Hsps other than Hsp90 (Moses, et al., Cancer Res. 2018, 78, 4022-4035). Because Hsp70 upregulation is an indicator of heat shock protein disruption (Kitson, et al., Nat. Chem. 2013, 5, 307-314) that causes client protein degradation, it was assessed whether 2-63 could change the protein stability of AR and AR-V7. […] 2-63-induced AR/AR-V7 downregulation was partially rescued by the proteasome inhibitor MG-132 (data not shown). This supports the involvement of proteasome degradation in AR reduction. Besides the posttranslational mechanisms, AR downregulation could also be caused by suppressing transcription factors (TFs) that drive the transcription of the AR gene. Sp1 and c-Myc were selected as representatives that could be affected by 2-63. Multiple Sp1 binding sites are located near the transcriptional initiation region of the AR gene.
Western Blotting. […] The protein concentration of supernatants was determined using the Pierce BCA Protein Assay Kit (Thermo Fisher, Cat #23225). […] The blots were developed in the Enhanced Chemiluminescence mixture and detected by ImageQuant™ LAS 4000 imaging system (GE). Density of protein bonds were calculated and analyzed by using imageJ software downloaded from the National Institute of Health website.

22Rv1 cells = test: Colony formation assay, 22Rv1 cells; format: cell-based; details: 2-63 1 μM plus BSO 5 μM, 24 h, then drug-free medium 11 days
Procedure: Colony formation assay. Cells (22Rv1 or C4-2) were seeded in six-well plates (1,000/well) and cultured overnight. Cells were then treated with 2-63 (1 μM in 22Rv1; 2.5 μM in C4-2), BSO (5 μM) alone or in combination for 24 h. Cells were washed and cultured in a drug-free medium (22Rv1, 11 days; C4-2, 8 days). On the last day, the medium was removed, cells were washed with PBS and fixed with methanol. The colonies were stained with crystal violet solution for 3 h at room temperature and air-dried.

[2] = Polarity/water solubility by retention on C18 reversed-phase HPLC; format: physicochemical; details: shorter retention time on C18 reversed-phase HPLC column
Procedure: as §1

RWPE-1 cells = test: BSO pretreatment plus 2-63, MTT viability, RWPE-1 cells; details: BSO 100 μM plus 2-63 5 μM, 24 h
Procedure: Cell viability was then assessed using an MTT assay.
PCa cells (6×10^3 cells/well) were seeded into 96-well plates overnight and then treated with indicated compounds at indicated concentrations and time durations. The MTT (3-(4, 5-Dimethylthiazol-2-yl)-2,5-diphenyltetrazolium bromide) assay was performed according to the standard protocol. Briefly, MTT (0.5 mg/mL) was incubated with cells at 37° C. for 3 hours. Supernatant was removed, followed by the addition of dimethyl DMSO (100 μl). After incubation for 30 minutes at 37° C., absorbance was read at 570 nm on a microplate reader.

AR-V7, Hsp70, HO-1 = test: Western blotting under BSO combination, 22Rv1 cells; format: cell-based; details: 2-63 2.5 μM plus BSO 100 μM, 24 h
Procedure: It was first investigated if iron chelators or antioxidants could rescue the viability of drug combination-treated cells. […] HO-1 catalyzes the decomposition of heme into carbon monoxide, biliverdin, and Fe^2+. […] Both Fer-1 and the lipophilic antioxidant α-Toc can effectively scavenge radicals in phosphatidylcholine lipid bilayers and break the redox cycle that generates lipid hydroperoxide.
Western Blotting. […] Proteins in cell lysates (40 μg) were separated using electrophoresis on SDS-PAGE and transferred onto PVDF (polyvinylidenedifluoride) membranes. Membranes were blocked in 5% fat-free milk followed by incubation with primary antibodies overnight at 4° C., and the secondary horseradish peroxidase-conjugated anti-rabbit or anti-mouse antibodies. The blots were developed in the Enhanced Chemiluminescence mixture and detected by ImageQuant™ LAS 4000 imaging system (GE). Density of protein bonds were calculated and analyzed by using imageJ software downloaded from the National Institute of Health website.

LNCaP and RWPE-1 cells = test: MTT viability, PCa LNCaP versus non-cancerous RWPE-1 cells; format: cell-based; details: 72 h, 2.5 to 10 μM
Excerpt: Because of the better selectivity and water solubility of 2-63 over 12b, 2-63 was used for further in vitro characterization and mechanistic studies.

SMILES: CC(=O)N[C@H](CSC(=S)NCCCCCCc1ccc(N2C(=S)N(c3ccc(C#N)c(C(F)(F)F)c3)C(=O)C2(C)C)cn1)C(=O)O [2-63, N-acetyl-S-((6-(5-(3-(4-cyano-3-(trifluoromethyl)phenyl)-5,5-dimethyl-4-oxo-2-thioxoimidazolidin-1-yl)pyridine-2-yl)hexyl)carbamothioyl)-D-cysteine]
- IC50 (VCaP cells): 6.09 µM
- half-life at 50 μM [1]: 3.4 h
- stability of FL AR and AR-V7 proteins (FL AR and AR-V7): significantly reduced
- colony formation of 22Rv1 cells (22Rv1 cells): very efficiently suppressed colony formation
- polarity/water solubility of 2-63 over 12b [2]: greatly improves
- viability of RWPE-1 cells remaining (RWPE-1 cells): Eighty
- AR-V7 expression, 22Rv1 cells (AR-V7, Hsp70, HO-1): effectively depletes AR-V7
- differential anti-proliferative effect, LNCaP vs RWPE-1 cells (LNCaP and RWPE-1 cells): more tolerated by RWPE-1 cells
